The subject of one data set is RD cells. As to the kind of experiment: Detection of cytotoxicity in RD cells (CellTiter-Glo). The class given is cell-based. Particulars: 4 days, CellTiter-Glo, median toxic dose. The method, boiled down:
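RD cells (1*10^5/mL) cultured 4 days at 37 °C with 10 compound concentrations from 3-fold dilution of a 400 μM pretreatment solution, final being 0.5 times that. Viability by CellTiter-Glo luminescence versus cell control; TD50 from S-curve fit; SI=TD50/IC50.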
(In ATP-based viability assays light output follows the ATP content of the culture.)

The target of another data set is T1, mTORC1 (Homo sapiens, UniProt P42345).
T1 construct: endogenous in cells; host or cells: RD cells
The data set is described as follows: Western blot, phosphorylation of Thr389 of p70S6K1 in RD cells (mTORC1 inhibition). The class given is cell-based. Particulars: 20 μM, 2 hours, Western blot (FIG. 1). As for the experimental part: In order to test the inhibitory activity of the synthesized compounds on the two mTOR complexes, the inhibitory activity experiments of mTORC1 and mTORC2 were carried out. Since mTORC1 and mTORC2 exerted their function by activating the phosphorylation of downstream substrates, the inhibitory activity of the compounds on mTORC1 and mTORC2 could be determined by detecting the phosphorylation levels of the Thr389 site of mTORC1 downstream substrate p70S6K1 and the Ser473 site of mTORC2 downstream substrate Akt.
Pretreatment of Compound:
(1) RD cells were cultured in DMEM medium containing 10% FBS and 1×PS (penicillin and streptomycin were at concentrations 100 IU and 100 μg/mL, respectively) at 37° C. and 5% CO2.
(2) The RD cells (5×10^5 cells/2 mL medium) were inoculated into a 6-well plate and incubated at 37° C. and 5% CO2 for 24 hours.
(3) The cells were washed once with PBS, and the cells were cultured in serum-free medium without nutrients overnight.
(4) Formulation of compounds: […]
Preparation of insulin medium: Insulin was diluted in DMEM medium containing 10% FBS and 1×PS so that the final concentration of insulin was 167 nM.
Pretreatment of compound to be tested: The compound was dissolved in DMSO so that the concentration of the test compound was 20 mM, and the compound was diluted in 167 nM insulin medium to reach a concentration of 20 μM.
Preparation of rapamycin solution: Rapamycin was dissolved in DMSO to a concentration of 10 mM, and the rapamycin was diluted in 167 nM insulin medium to reach a concentration of 20 μM.
(5) The serum-free medium in each well was removed.
(6) 2 mL of complete medium containing DMSO was added to each well as a control carrier. The final concentration of DMSO was 0.2%.
(7) 2 mL of 20 μM rapamycin solution and 20 μM the compound to be tested were added to the designated wells, respectively. The final concentration of DMSO was 0.2%.
(8) The cells were incubated for 2 hours at 37° C. and 5% CO2.
Protein extraction and concentration determination:
(1) The cells were washed once with refrigerated PBS, and then the PBS was discarded.
(2) 150 μL of cell extraction buffer (RIPA, […], catalog number: C1053) was transferred into each well to lyse the cells, and then the resulting cell solution were incubated on ice for 30 minutes.
(3) Centrifugation was performed at 14000 rpm (13000× g) for 30 minutes at 4° C.
(4) The supernatant was transferred into a new eppendorf tube, and the cell lysate was stored at −80° C. before testing.
(5) The protein concentration was determined by BCA method.
Preparation of Buffer Solutions:
(1) 100× Protease inhibitor (Beyotime, catalog number: P1005): 1 mL of redistilled water was added to the protease inhibitor and stirred gently until the solid was completely dissolved.
(2) Lysis Buffer: […] of 100× protease inhibitor and 2× phosphatase inhibitor Cocktails PhosSTOP (Beyotime, catalog number: P1082) were added to 100 mL of the cell extract, and stirred gently until it was completely dissolved.
(3) Electrophoresis Running Buffer:
10×MOPS buffer: 52.33 g of MOPS, 30.29 g of Tris base, 10 mL of 0.5 mol/L EDTA (pH 8.5) and 5 g of SDS was dissolved in 400 mL of redistilled water, stirred to dissolve, and the pH was adjusted to 7.5, then redistilled water was added again to reach a volume of 500 mL; 1×MOPS: 100 mL of 10×MOPS was diluted with redistilled water to 1000 mL.
(4) 1× Transfer Buffer: […] of 10× transfer buffer (144 g of glucine, 30.3 g of trisbase, and distilled water were mixed to reach a volume of 1 L) and 400 mL of methanol were dissolved in 1500 mL of redistilled water, and then the redistilled water was added to reach a volume of 2000 mL. […]

For the compound `O=C(Nc1ccc(-c2ccc3ncc4ccc(=O)n(-c5cccc(C(F)(F)F)c5)c4c3c2)cn1)OCc1ccccc1` [HTL-7-14, 9-[3-(6-benzyloxyamido)pyridyl]-2-oxo-1-[3-(trifluoromethyl)phenyl]-1,2-dihydrobenzo[h][1,6]naphthyridine], the TD50 in the data set with RD cells stood at 1.00 ± 0.81 µM. For the same compound, at mTORC1, the “p70 phosphorylation expression level” value was “significantly down-regulate”.

With `O=C(Nc1ccc(-c2ccc3ncc4ccc(=O)n(-c5cccc(C(F)(F)F)c5)c4c3c2)cn1)Oc1ccccc1` [HTL-7-15, 9-[3-(6-phenoxyamido)pyridyl]-2-oxo-1-[3-(trifluoromethyl)phenyl]-1,2-dihydrobenzo[h][1,6]naphthyridine], in the data set on RD cells, the TD50 was determined as 0.20 ± 0.09 µM. Moreover, the “p70 phosphorylation expression level” value at mTORC1 is on record as “significantly down-regulate”.

Take `CN(C)c1ccc(-c2ccc3ncc4ccc(=O)n(-c5cccc(C(F)(F)F)c5)c4c3c2)cn1` [HTL-7-16, 9-[3-(6-N,N-dimethyl)pyridyl]-2-oxo-1-[3-(trifluoromethyl)phenyl]-1,2-dihydrobenzo[h][1,6]naphthyridine]: the TD50 with RD cells was 0.17 ± 0.06 µM. Besides, the “p70 phosphorylation expression level” value on mTORC1 is “significantly down-regulate”.

In the case of `CN1CCN(c2ccc(-c3ccc4ncc5ccc(=O)n(-c6cccc(C(F)(F)F)c6)c5c4c3)cn2)CC1` [HTL-7-17, 9-{3-[6-(4-methylpiperazin-1-yl)pyridyl]}-2-oxo-1-[3-(trifluoromethyl)phenyl]-1,2-dihydrobenzo[h][1,6]naphthyridine], the TD50 in the data set with RD cells was determined as 0.18 ± 0.15 µM. For the same compound, the “p70 phosphorylation expression level” value on mTORC1 was “significantly down-regulate”.

`O=c1ccc2cnc3ccc(-c4ccc(N5CCOCC5)nc4)cc3c2n1-c1cccc(C(F)(F)F)c1` [HTL-7-18, 9-[3-(6-morpholin-4-yl)pyridyl]-2-oxo-1-[3-(trifluoromethyl)phenyl]-1,2-dihydrobenzo[h][1,6]naphthyridine] had a TD50 in the data set with RD cells of 2.91 ± 1.16 µM. The “p70 phosphorylation expression level” value at mTORC1 is on record as “significantly down-regulate”.

The compound `COc1cc(-c2ccc3ncc4ccc(=O)n(-c5cccc(C(F)(F)F)c5)c4c3c2)cnc1N` [HTL-7-19, 9-[3-(6-amino-5-methoxy)pyridyl]-2-oxo-1-[3-(trifluoromethyl)phenyl]-1,2-dihydrobenzo[h][1,6]naphthyridine] gave a TD50 with RD cells of 0.06 ± 0.02 µM. In addition, at mTORC1, the “p70 phosphorylation expression level” value is listed as “significantly down-regulate”.

As to `O=c1ccc2cnc3ccc(-c4ccc(N5CCCC5)nc4)cc3c2n1-c1cccc(C(F)(F)F)c1` [HTL-7-20, 9-[3-(6-pyrrolidinyl)pyridyl]-2-oxo-1-[3-(trifluoromethyl)phenyl]-1,2-dihydrobenzo[h][1,6]naphthyridine], the TD50 in the data set with RD cells turned out to be 1.79 ± 0.67 µM. The “p70 phosphorylation expression level” value at mTORC1 is “significantly down-regulate”.

Turning to `CC(C)(C)OC(=O)Nc1ccc(-c2ccc3ncc4ccc(=O)n(-c5cccc(C(F)(F)F)c5)c4c3c2)cn1` [HTL-7-21, 9-[3-(6-tert-butoxycarbonylamino)pyridyl]-2-oxo-1-[3-(trifluoromethyl)phenyl]-1,2-dihydrobenzo[h][1,6]naphthyridine], in the data set on RD cells, the TD50 was determined as 0.69 ± 0.50 µM. The “p70 phosphorylation expression level” value at mTORC1 was “significantly down-regulate”.
